{"source": "ChEMBL document CHEMBL1129440", "about": "“The use of topographical constraints in receptor mapping: investigation of the topographical requirements of the tryptophan 30 residue for receptor binding of Asp-Tyr-D-Phe-Gly-Trp-(N-Me)Nle-Asp-Phe-NH2 (SNF 9007), a cholecystokinin (26-33) analogue that binds to both CCK-B and delta-opioid …” (J Med Chem, 1996)", "key": {"[1]": {"target": "Mu-type opioid receptor (Cavia porcellus, UniProt P97266)", "sequence (P97266 whole entry)": "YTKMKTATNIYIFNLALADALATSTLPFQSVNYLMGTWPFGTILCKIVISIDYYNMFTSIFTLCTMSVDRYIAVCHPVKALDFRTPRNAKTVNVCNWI", "assay": "Binding affinity towards Opioid receptor mu 1 was determined in guinea pig whole brain using [3H]CTOP radioligand; call rule not given here"}, "[2]": {"target": "T1, Cholecystokinin receptor type A (Cavia porcellus, UniProt Q63931)", "T1 sequence (Q63931 whole entry)": "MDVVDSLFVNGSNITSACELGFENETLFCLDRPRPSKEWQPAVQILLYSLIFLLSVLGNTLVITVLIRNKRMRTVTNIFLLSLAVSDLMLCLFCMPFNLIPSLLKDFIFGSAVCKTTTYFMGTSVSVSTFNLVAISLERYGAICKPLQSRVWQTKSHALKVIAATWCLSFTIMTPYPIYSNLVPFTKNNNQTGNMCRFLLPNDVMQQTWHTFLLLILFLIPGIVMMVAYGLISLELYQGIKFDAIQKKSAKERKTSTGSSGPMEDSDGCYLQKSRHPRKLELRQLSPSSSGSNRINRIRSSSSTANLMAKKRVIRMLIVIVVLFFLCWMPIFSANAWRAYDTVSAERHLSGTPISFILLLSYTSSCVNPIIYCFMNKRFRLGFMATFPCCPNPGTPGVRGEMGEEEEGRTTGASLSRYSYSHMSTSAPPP", "assay": "Binding affinity towards Cholecystokinin type A receptor was determined in guinea pig pancreatic membranes using [125I]-BH-CCK-8 as radioligand", "assay_type": "cell membranes"}}, "data": [{"smiles": "CCCC[C@@H](C(=O)N[C@@H](CC(=O)O)C(=O)N[C@@H](Cc1ccccc1)C(N)=O)N(C)C(=O)[C@@H](NC(=O)CNC(=O)[C@@H](Cc1ccccc1)NC(=O)[C@H](Cc1ccc(O)cc1)NC(=O)[C@@H](N)CC(=O)O)[C@H](C)c1c[nH]c2ccccc12", "values": [{"measurement": "IC50", "setting": "[1]", "value": 3.05, "unit": "µM"}, {"measurement": "IC50", "setting": "[2]; read-out: IC50", "value": 1, "unit": "µM"}]}, {"smiles": "CCCC[C@@H](C(=O)N[C@@H](CC(=O)O)C(=O)N[C@@H](Cc1ccccc1)C(N)=O)N(C)C(=O)[C@@H](NC(=O)CNC(=O)[C@@H](Cc1ccccc1)NC(=O)[C@H](Cc1ccc(O)cc1)NC(=O)[C@@H](N)CC(=O)O)[C@@H](C)c1c[nH]c2ccccc12", "values": [{"measurement": "IC50", "setting": "[1]", "value": 6.8, "unit": "µM"}, {"measurement": "IC50", "setting": "[2]; read-out: IC50", "value": "> 1.2", "unit": "µM"}]}, {"smiles": "CC1(C)SSC(C)(C)[C@H](C(=O)O)NC(=O)C(Cc2ccccc2)NC(=O)CNC(=O)C1NC(=O)[C@@H](N)Cc1ccc(O)cc1", "note": "(single isomer, unassigned)", "values": [{"measurement": "IC50", "setting": "[2]", "value": "Not Active"}]}, {"smiles": "CCCC[C@@H](C(=O)N[C@@H](CC(=O)O)C(=O)N[C@@H](Cc1ccccc1)C(N)=O)N(C)C(=O)[C@H](Cc1c[nH]c2ccccc12)NC(=O)CNC(=O)[C@@H](Cc1ccccc1)NC(=O)[C@H](Cc1ccc(O)cc1)NC(=O)[C@@H](N)CC(=O)O", "values": [{"measurement": "IC50", "setting": "[1]", "value": 0.7, "unit": "µM"}, {"measurement": "IC50", "setting": "[2]; read-out: IC50", "value": "> 12", "unit": "µM"}]}, {"smiles": "CCCC[C@@H](C(=O)N[C@@H](CC(=O)O)C(=O)N[C@@H](Cc1ccccc1)C(N)=O)N(C)C(=O)[C@H](NC(=O)CNC(=O)[C@@H](Cc1ccccc1)NC(=O)[C@H](Cc1ccc(O)cc1)NC(=O)[C@@H](N)CC(=O)O)[C@H](C)c1c[nH]c2ccccc12", "values": [{"measurement": "IC50", "setting": "[1]", "value": "> 30", "unit": "µM"}, {"measurement": "IC50", "setting": "[2]; read-out: IC50", "value": 8.6, "unit": "µM"}]}, {"smiles": "CCCC[C@@H](C(=O)N[C@@H](CC(=O)O)C(=O)N[C@@H](Cc1ccccc1)C(N)=O)N(C)C(=O)[C@H](NC(=O)CNC(=O)[C@@H](Cc1ccccc1)NC(=O)[C@H](Cc1ccc(O)cc1)NC(=O)[C@@H](N)CC(=O)O)[C@@H](C)c1c[nH]c2ccccc12", "values": [{"measurement": "IC50", "setting": "[1]", "value": "> 30", "unit": "µM"}, {"measurement": "IC50", "setting": "[2]; read-out: IC50", "value": 8.6, "unit": "µM"}]}]}
